In one test the test system is HepG2 cells. Briefly: Cytotoxic test on immortalized cells, MTT. It counts as cell-based, human. Particulars: Homo sapiens, HepG2, 72 h. On the procedure:
The cytotoxic effects of brussonol and derivatives were evaluated against the human hepatocellular carcinoma cell line (HepG2). The cells were cultivated in an RPMI medium supplemented with 10% (v/v) fetal bovine serum and 25 µg/mL gentamicin. Conditions for the cultivation of these cells were 37 °C and 5% CO2, and every 2 days the supplemented medium was changed.
For experimental procedures, the cells were trypsinized and transferred to a 96-well plate at 30,000 cells per well (180 µL). The plate was incubated at 37 °C and 5% CO2 to allow cell adhesion. Next, 20 µL of serial dilutions of the compounds tested were added to the plate, with a range of concentrations tested from 400–6.25 µM. Cells without any compounds were used as a positive control for growing and the wells containing only medium were used as negative controls. The plate was incubated for 72 h at 37 °C and 5% CO2. After incubation, a microscope was used to determine the highest compound concentration to be used in the experiments (highest concentration without precipitation). A colorimetric assay was used to evaluate cytotoxicity. This assay is based on the metabolic cell activity in the presence of 3-(4,5-dimethylthiazol-2-yl)-2,5-diphenyltetrazolium bromide (MTT). Shortly after incubation, 20 µL of a solution of MTT at 5 mg/mL (solubilized in phosphate buffer) is added to each well. The plate is incubated for 3 to 4 h at 37 °C to allow MTT cleavage in living cells. Then, the supernatant is removed, and 100 µL of dimethylsulfoxide (DMSO) is added to solubilize the purple formazan crystals. The absorbance, which is proportional to the number of viable cells, was determined using a SpectraMAX Plus 384 plate reader (Molecular Devices Corp., Sunnyvale, CA) (λ = 570 nm). All compounds described here were purchased from Sigma-Aldrich (verificar local).
After the IC50 against the parasite and the human cell line is determined, it is possible to calculate the SI. It is calculated as the formula below:SI = IC50^HepG2/IC50^Pf.
For our reference, compounds with SI values higher than 10 are considered well tolerated by the cellular model used, and they are considered for further evaluation.

In test [1] the test system is P. falciparum 3D7^r_MMV848 strain. Briefly: Resistance assessment, 3D7r-MMV848 strain. It counts as cell-based. Particulars: Plasmodium falciparum.
Another test has as its system P. falciparum. The experiment in a line: In vitro combination with artesunate, fixed-ratio isobologram. It counts as cell-based, Plasmodium falciparum. The source says: A drug combination investigation is important to assess whether the combination of the tested compound with a known antimalarial drug is advantageous or not. In this assay, a fixed molar ratio was used to assess the combination profile of brussonol and artesunate. The range of concentrations tested was based on the assessed IC50 values of both the compounds previously determined. In this method, we first determined the additive isobole, which defined the range of IC50 values pairs to be attributed to an additive (neutral) character of combination. Next, the combination pairs were plotted. Data points distributed below or above the additive isobole indicate a synergic or antagonistic profile, respectively.
This assay was adapted from the work done by Fivelman and collaborators (2004). Consideration of additivity ranges was included in the analysis, as described by Grabovsky and Tallarida (2004). Brussonol and artesunate were diluted and combined in a 96-well plate in […] fixed-ratio combinations (1:0, 6:1, 5:2, 4:3, 3:4, 2:5, 1:6, 0:1). Starting concentrations were 6× IC50 for both compounds. […] The absolute IC50s of brussonol and artesunate (proportions 1:0 and 0:1), the partial IC50s (IC50^brussonol and IC50^artesunate) for each combination (6:1, 5:2, 4:3, 3:4, 2:5, 1:6), and the fractional inhibitory concentrations for each combination were determined.

The structures appear in SMILES notation. Where “and” joins values, the source holds several entries; their conditions need not be identical. Equal values may be shown once.

For orientation: IC50 means the concentration at which inhibition is half-maximal. As for `CC(C)c1cc2c(c(O)c1O)C[C@@]13CCCC(C)(C)[C@@H]1C[C@@H]2O3` [Compound 1, brussonol], the figures for the IC50 (with HepG2 cells; in test [1]) were 67 ± 4 µM and 12 ± 3 µM, respectively. Besides, the “sum of fractional inhibitory concentrations (FICindex)” value in the test with P. falciparum (brussonol combined with artesunate, proportion 1:1 respective to each IC50) is ~ 1 and 1.1 ± 0.1. Further, the “combination profile with artesunate” value in the test on P. falciparum (isobologram, fixed-ratio combinations) was “additive effect”.

Values taken from paper PMC9321043, “Synthesis, Structure–Activity Relationships, and Parasitological Profiling of Brussonol Derivatives as New Plasmodium falciparum Inhibitors” (Pharmaceuticals, 2022).
